From ChEMBL document CHEMBL1139698, “Potent, selective pyrimidinetrione-based inhibitors of MMP-13” (Bioorg Med Chem Lett, 2006) come the findings set out here.

Test [1] is filed under the species Homo sapiens. As to the kind of experiment: Selectivity for MMP13 over MMP2.
Test [2] is filed under the species Homo sapiens. Kind of test: Selectivity for MMP13 over MMP8.
Test [3] is filed under the species Homo sapiens. As to the kind of experiment: Selectivity for MMP13 over MMP12.
The next test addresses Collagenase 3 (Homo sapiens, UniProt P45452).

The structures appear in SMILES notation.

One may read the IC50 as the point on the concentration scale where inhibition reaches its midpoint. With `CCOCCC1(Oc2ccc(Oc3ccc(-c4nc(-c5ccc(F)cc5)no4)cc3)cc2)C(=O)NC(=O)NC1=O`, the Selectivity ratio in the test listed under Homo sapiens [1] is 80; in the test listed under Homo sapiens [2], 210; in the test filed under Homo sapiens [3] it was 114. Moreover, the IC50 on Collagenase 3 was 6.1 nM.

As for `CCOCCC1(Oc2ccc(Oc3ccc(-c4cc(-c5ccccc5)no4)cc3)cc2)C(=O)NC(=O)NC1=O`, the values for the Selectivity ratio in the test filed under Homo sapiens [1], in the test filed under Homo sapiens [2] and in the test filed under Homo sapiens [3] were 11, 571 and 38, respectively. The compound further returned a 50% inhibitory concentration (IC50) on Collagenase 3 of 1.6 nM.

On to `CCOCCC1(Oc2ccc(Oc3ccc(-c4nc(-c5ccccc5F)no4)cc3)cc2)C(=O)NC(=O)NC1=O`, for which the figures for the Selectivity ratio in the test listed under Homo sapiens [1], in the test filed under Homo sapiens [2] and in the test listed under Homo sapiens [3] were 102, 167 and 176, respectively. Besides, the IC50 at Collagenase 3 amounted to 3.3 nM.

With `COCCC1(Oc2ccc(Oc3ccc(-c4nc(-c5cccc(F)c5)co4)cc3)cc2)C(=O)NC(=O)NC1=O`, the Selectivity ratio is 239 in the test filed under Homo sapiens [1], 152 in the test filed under Homo sapiens [2] and 1310 in the test listed under Homo sapiens [3]. The IC50 against Collagenase 3 stood at 0.46 nM.

As to `CCOCCC1(Oc2ccc(Oc3ccc(-c4nc(-c5ccc(C#N)cc5)co4)cc3)cc2)C(=O)NC(=O)NC1=O`, the Selectivity ratio in the test listed under Homo sapiens [1] came to 429; in the test listed under Homo sapiens [2] it was 233; in the test filed under Homo sapiens [3] it was 373. Besides, at Collagenase 3, the half-inhibitory concentration (IC50) turned out to be 0.45 nM.

Consider `CCOCCC1(Oc2ccc(Oc3ccc(-c4nc(-c5cccc(F)c5)no4)cc3)cc2)C(=O)NC(=O)NC1=O`, for which the results for the Selectivity ratio in the test filed under Homo sapiens [1], in the test listed under Homo sapiens [2] and in the test listed under Homo sapiens [3] were 88, 95 and 56, respectively. In addition, on Collagenase 3, half-maximal inhibition (IC50) was put at 7.8 nM.

On to `COCCC1(Oc2ccc(Oc3ccc(-c4nc(-c5ccc(F)cc5)co4)cc3)cc2)C(=O)NC(=O)NC1=O`, for which the results for the Selectivity ratio in the test listed under Homo sapiens [1], in the test listed under Homo sapiens [2] and in the test filed under Homo sapiens [3] were 356, 338 and 960, respectively. Moreover, the IC50 against Collagenase 3 came to 0.57 nM.

In the case of `CCOCCC1(Oc2ccc(Oc3ccc(-c4nnc(-c5ccccc5)o4)cc3)cc2)C(=O)NC(=O)NC1=O`, the Selectivity ratio in the test listed under Homo sapiens [1] was found to be 66; in the test filed under Homo sapiens [2], 98; in the test listed under Homo sapiens [3] it was 126. Besides, the concentration for half-maximal inhibition (IC50) on Collagenase 3 was 12 nM.

Regarding `CCOCCC1(Oc2ccc(Oc3ccc(-c4nc(-c5cccc(F)c5)co4)cc3)cc2)C(=O)NC(=O)NC1=O`, the Selectivity ratio stood at 292 in the test filed under Homo sapiens [1], 133 in the test filed under Homo sapiens [2] and 906 in the test listed under Homo sapiens [3]. Besides, the IC50 against Collagenase 3 amounted to 0.36 nM.

Regarding `CCOCCC1(Oc2ccc(Oc3ccc(-c4nc(-c5cccnc5)co4)cc3)cc2)C(=O)NC(=O)NC1=O`, the Selectivity ratio is 38 in the test filed under Homo sapiens [1], 265 in the test listed under Homo sapiens [2] and 124 in the test filed under Homo sapiens [3]. The compound further registered a concentration for half-maximal inhibition (IC50) on Collagenase 3 of 0.34 nM.

As to `COCCC1(Oc2ccc(Oc3ccc(-c4nc(-c5ccccc5F)co4)cc3)cc2)C(=O)NC(=O)NC1=O`, the Selectivity ratio in the test filed under Homo sapiens [1] was 288; in the test listed under Homo sapiens [2], 149; in the test filed under Homo sapiens [3], 605. This compound also came in with a concentration for half-maximal inhibition (IC50) against Collagenase 3 of 1.4 nM.

`CCOCCC1(Oc2ccc(Oc3ccc(-c4ncc(-c5ccccc5)o4)cc3)cc2)C(=O)NC(=O)NC1=O`: the Selectivity ratio stood at 144 in the test listed under Homo sapiens [1], 43 in the test filed under Homo sapiens [2] and 103 in the test filed under Homo sapiens [3]. Besides, the half-inhibitory concentration (IC50) on Collagenase 3 came to 7.5 nM.

With `CCOCCC1(Oc2ccc(Oc3ccc(-c4nc(-c5ccncc5)co4)cc3)cc2)C(=O)NC(=O)NC1=O`, the Selectivity ratio in the test filed under Homo sapiens [1] amounted to 70; in the test listed under Homo sapiens [2], 250; in the test listed under Homo sapiens [3] it was 530. Further, 0.4 nM corresponded to half-maximal inhibition on Collagenase 3 (IC50).

Turning to `CCOCCC1(Oc2ccc(Oc3ccc(-c4nc(-c5ccccc5)no4)cc3)cc2)C(=O)NC(=O)NC1=O`, the Selectivity ratio in the test filed under Homo sapiens [1] worked out at 54; in the test listed under Homo sapiens [2], 208; in the test listed under Homo sapiens [3], 138. The compound also returned an IC50 against Collagenase 3 of 3.4 nM.

Take `CCOCCC1(Oc2ccc(Oc3ccc(C(=O)NCc4ccccn4)cc3)cc2)C(=O)NC(=O)NC1=O`: the Selectivity ratio in the test filed under Homo sapiens [1] was determined as 17; in the test filed under Homo sapiens [3] it was 30. The compound further returned an IC50 at Collagenase 3 of 6.1 nM.

For the compound `CCOCCC1(Oc2ccc(Oc3ccc(-c4cnc(-c5ccccc5)o4)cc3)cc2)C(=O)NC(=O)NC1=O`, the values for the Selectivity ratio in the test filed under Homo sapiens [1], in the test listed under Homo sapiens [2] and in the test filed under Homo sapiens [3] were 165, 212 and 309, respectively. This compound also gave a 50% inhibitory concentration (IC50) on Collagenase 3 of 1.7 nM.

Turning to `COCCC1(Oc2ccc(Oc3ccc(-c4nc(-c5ccccc5C#N)co4)cc3)cc2)C(=O)NC(=O)NC1=O`, the figures for the Selectivity ratio in the test listed under Homo sapiens [1], in the test listed under Homo sapiens [2] and in the test listed under Homo sapiens [3] were 173, 516 and 342, respectively. The compound further had a half-maximal inhibitory concentration (IC50) at Collagenase 3 of 0.73 nM.

As for `CCOCCC1(Oc2ccc(Oc3ccc(-c4nc(-c5ccncc5)no4)cc3)cc2)C(=O)NC(=O)NC1=O`, the values for the Selectivity ratio in the test filed under Homo sapiens [1], in the test filed under Homo sapiens [2] and in the test listed under Homo sapiens [3] were 291, 555 and 232, respectively. This compound also gave an IC50 against Collagenase 3 of 0.54 nM.

Regarding `CCOCCC1(Oc2ccc(Oc3ccc(C(=O)NCc4cccnc4)cc3)cc2)C(=O)NC(=O)NC1=O`, the Selectivity ratio in the test filed under Homo sapiens [1] came to 26; in the test listed under Homo sapiens [3], 27. In addition, at Collagenase 3, the IC50 worked out at 2.6 nM.

With `CCOCCC1(Oc2ccc(Oc3ccc(-c4nc(-c5cccc(C#N)c5)co4)cc3)cc2)C(=O)NC(=O)NC1=O`, the figures for the Selectivity ratio in the test listed under Homo sapiens [1], in the test filed under Homo sapiens [2] and in the test listed under Homo sapiens [3] were 58, 155 and 134, respectively. 0.53 nM corresponded to half-maximal inhibition on Collagenase 3 (IC50).

Take `CCOCCC1(Oc2ccc(Oc3ccc(-c4nc(-c5ccccc5C#N)co4)cc3)cc2)C(=O)NC(=O)NC1=O`: the Selectivity ratio in the test listed under Homo sapiens [1] was 142; in the test listed under Homo sapiens [2] it was 569; in the test filed under Homo sapiens [3] it was 178. This compound registered a 50% inhibitory concentration (IC50) against Collagenase 3 of 0.88 nM.

With `CCOCCC1(Oc2ccc(Oc3ccc(-c4nc(-c5ccccc5F)co4)cc3)cc2)C(=O)NC(=O)NC1=O`, the figures for the Selectivity ratio in the test filed under Homo sapiens [1], in the test filed under Homo sapiens [2] and in the test filed under Homo sapiens [3] were 562, 270 and 868, respectively. Besides, on Collagenase 3, the midpoint of inhibition, the IC50, lay at 0.93 nM.

As to `CCOCCC1(Oc2ccc(Oc3ccc(C(=O)Nc4ccccc4)cc3)cc2)C(=O)NC(=O)NC1=O`, the results for the Selectivity ratio in the test filed under Homo sapiens [1], in the test listed under Homo sapiens [2] and in the test listed under Homo sapiens [3] were 58, 200 and 50, respectively. The compound also yielded a half-maximal inhibitory concentration (IC50) at Collagenase 3 of 0.84 nM.

Turning to `COCCC1(Oc2ccc(Oc3ccc(-c4nc(-c5cccc(C#N)c5)co4)cc3)cc2)C(=O)NC(=O)NC1=O`, the Selectivity ratio turned out to be 29 in the test filed under Homo sapiens [1], 140 in the test listed under Homo sapiens [2] and 181 in the test listed under Homo sapiens [3]. Also, the IC50 on Collagenase 3 stood at 0.63 nM.

`CCOCCC1(Oc2ccc(Oc3ccc(C(=O)NCc4ccc(F)cc4)cc3)cc2)C(=O)NC(=O)NC1=O`: the Selectivity ratio in the test filed under Homo sapiens [1] stood at 17; in the test listed under Homo sapiens [3] it was 11. This compound had an IC50 against Collagenase 3 of 3.4 nM.

For `CCOCCC1(Oc2ccc(Oc3ccc(C(=O)Nc4ccccn4)cc3)cc2)C(=O)NC(=O)NC1=O`, the results for the Selectivity ratio in the test listed under Homo sapiens [1], in the test filed under Homo sapiens [2] and in the test filed under Homo sapiens [3] were 27, 15 and 27, respectively. The compound further had an IC50 at Collagenase 3 of 3.9 nM.

On to `CCOCCC1(Oc2ccc(Oc3ccc(-c4nc(-c5cccnc5)no4)cc3)cc2)C(=O)NC(=O)NC1=O`, for which the Selectivity ratio in the test filed under Homo sapiens [1] came out at 134; in the test filed under Homo sapiens [2] it was 320; in the test listed under Homo sapiens [3] it was 504. At Collagenase 3, this compound showed an IC50 of 2 nM.

Take `CCOCCC1(Oc2ccc(Oc3ccc(-c4nc(-c5ccccn5)co4)cc3)cc2)C(=O)NC(=O)NC1=O`: the Selectivity ratio was 74 in the test listed under Homo sapiens [1], 57 in the test filed under Homo sapiens [2] and 158 in the test filed under Homo sapiens [3]. Further, at Collagenase 3, the IC50 is 1 nM.

In the case of `CCOCCC1(Oc2ccc(Oc3ccc(C(=O)NCc4ccccc4F)cc3)cc2)C(=O)NC(=O)NC1=O`, the Selectivity ratio turned out to be 55 in the test listed under Homo sapiens [1], 27 in the test filed under Homo sapiens [2] and 80 in the test listed under Homo sapiens [3]. The compound further registered a concentration for half-maximal inhibition (IC50) against Collagenase 3 of 1.1 nM.

For `CCOCCC1(Oc2ccc(Oc3ccc(-c4noc(-c5ccccc5)n4)cc3)cc2)C(=O)NC(=O)NC1=O`, the Selectivity ratio in the test filed under Homo sapiens [1] was determined as 27; in the test listed under Homo sapiens [3], 37. Further, the IC50 on Collagenase 3 came out at 0.84 nM.

Turning to `CCOCCC1(Oc2ccc(Oc3ccc(-c4nc(-c5ccc(F)cc5)co4)cc3)cc2)C(=O)NC(=O)NC1=O`, the Selectivity ratio worked out at 455 in the test filed under Homo sapiens [1], 243 in the test listed under Homo sapiens [2] and 573 in the test filed under Homo sapiens [3]. On Collagenase 3, the IC50 worked out at 0.68 nM.

As for `CCOCCC1(Oc2ccc(Oc3ccc(-c4nc(-c5ccccc5)co4)cc3)cc2)C(=O)NC(=O)NC1=O`, the Selectivity ratio in the test listed under Homo sapiens [1] came out at 58; in the test listed under Homo sapiens [2], 115; in the test filed under Homo sapiens [3] it was 259. The compound also returned an IC50 against Collagenase 3 of 2.4 nM.

In the case of `CCOCCC1(Oc2ccc(Oc3ccc(C(=O)NCc4cccc(F)c4)cc3)cc2)C(=O)NC(=O)NC1=O`, the Selectivity ratio in the test listed under Homo sapiens [1] worked out at 74; in the test filed under Homo sapiens [2] it was 25; in the test filed under Homo sapiens [3], 120. The half-maximal inhibitory concentration (IC50) against Collagenase 3 came to 0.85 nM.

In the case of `CCOCCC1(Oc2ccc(Oc3ccc(C(=O)Nc4cccnc4)cc3)cc2)C(=O)NC(=O)NC1=O`, the Selectivity ratio came to 63 in the test filed under Homo sapiens [1], 120 in the test listed under Homo sapiens [2] and 190 in the test listed under Homo sapiens [3]. This compound also displayed an IC50 at Collagenase 3 of 0.4 nM.

For `CCOCCC1(Oc2ccc(Oc3ccc(C(=O)NCc4ccccc4)cc3)cc2)C(=O)NC(=O)NC1=O`, the figures for the Selectivity ratio in the test filed under Homo sapiens [1] and in the test listed under Homo sapiens [3] were 21 and 27, respectively. Also, on Collagenase 3, the half-inhibitory concentration (IC50) came to 8 nM.
